Data reported in patent US20110071094A1, “(D)-ALLOSE INDUCING PROGRAMMED CELL DEATH IN HORMONE REFRACTORY PROSTATE CANCER LINES” (INDUSTRY-ACADEMIC COOPERATION FOUDATION, GYEONGSANG …, priority 2008, published 2011).

System: DU145 cell line
Test: Fura-2 measurement of [Ca^2+]c
Format: cell-based, human
Details: DU145, 20 and 40 mM, 48 h
Method: [Ca^2+]c was measured by fluorescent indicator fura-2 acetoxymethyl ester (fura-2 AM) as described in Malgaroli A et al., J. Cell. Biol. 105:2145-2155, 1987. Briefly, DU145 cell line (1×10^6 cells in triplicate culture plates) was exposed to 0, 20 and 40 mM of D-allose for 48 and 72 h and then incubated with serum-free culture media containing 5 μM of fura-2AM at 37° C. in dark for another 1 h. The cells were washed twice with Locke's solution (pH 7.3) and the fura-2 fluorescence signals of [Ca^2+]c were measured by luminescence spectrophotometer (LS 50B, Perkin Elmer, Boston, Mass., USA) using 340 and 380 nm as excitation wavelengths (λex), and 510 nm as emission wavelength (λem). […] The slides were mounted with Prolong Antifade reagent (Molecular Probes, Eugene, Oreg., USA), and images (JC-1, green) were acquired by use of a fluorescence microscope (Axioplan 2, Carl Zeiss, Germany).

O=C[C@H](O)[C@H](O)[C@H](O)[C@H](O)CO [D-allose]
[Ca^2+]c: remarkably elevated
